The record followed here is ChEMBL document CHEMBL5584238, “Psammaplin A analogues with modified disulfide bond targeting histone deacetylases: Synthesis and biological evaluation” (Eur J Med Chem, 2024).

Structures are written as SMILES. Activity calls are given as the source filed them. The rule behind the calls is not given here.

Experiment [1] relates to HCT-116. Briefly: Induction of cell cycle arrest in human HCT-116 cells assessed as accumulation of cells at S phase at 0.2 uM after 24 hrs by PI staining based flow cytometry analysis (reference value: 52.8%). In kind it is functional. A general note: A flow cytometer gives signals particle by particle.
The subject of experiment [2] is HCT-116. As to the kind of experiment: Induction of apoptosis in human HCT-116 cells assessed as early apoptotic cells at 0.2 uM incubated for 24 hrs by Annexin V-FITC/PI staining based flow cytometry analysis ( Rvb = 2.36%). In kind it is functional.
The subject of experiment [3] is Mus musculus. Briefly: In vivo inhibition of class 1 HDACs in BALB/c nude mouse assessed as upregulation of tumor acetylated H3 level at 5 mg/kg, ip administered every 2 days for 26 days by Western blotting analysis. As to conditions: time 26.0 day. Format: functional, organism-based. (In western blotting, separated proteins are transferred to a membrane and probed.)

Experiment [4] relates to HCT-116. Briefly: Induction of cell cycle arrest in human HCT-116 cells assessed as accumulation of cells at G2/M phase at 0.2 uM after 24 hrs by PI staining based flow cytometry analysis (reference value: 9.3%). In kind it is functional.
In experiment [5] the test system is HCT-116. Briefly: Antitumor activity against human HCT-116 cells xenografted with BALB/c nude mouse assessed as tumor growth inhibition at 5 mg/kg, ip administered every 2 days for 26 days. In kind it is functional. The following applies: HCT-116, 624 h, time 26 day, read-out: TGI. (A xenograft is tissue or cells of one species grown in another, often human tumour cells in immunodeficient mice.)

Experiment [6] has as its system HCT-116. Briefly: Induction of cell cycle arrest in human HCT-116 cells assessed as accumulation of cells at G1 phase at 0.2 uM after 24 hrs by PI staining based flow cytometry analysis (reference value: 37.9%). Format: functional.
Experiment [7] deals with HCT-116. As to the kind of experiment: Induction of apoptosis in human HCT-116 cells assessed as viable cells at 0.2 uM incubated for 24 hrs by Annexin V-FITC/PI staining based flow cytometry analysis ( Rvb = 92.2%). Format: functional. As to conditions: read-out: Activity.
The subject of experiment [8] is HCT-116. As to the kind of experiment: Induction of apoptosis in human HCT-116 cells assessed as late apoptotic cells at 0.2 uM incubated for 24 hrs by Annexin V-FITC/PI staining based flow cytometry analysis ( Rvb = 5.32%). Format: functional.
Experiment [9] concerns the target T1, Protein deacetylase HDAC6 (Mus musculus) (UniProt Q9Z2V5).
T1 sequence (whole entry): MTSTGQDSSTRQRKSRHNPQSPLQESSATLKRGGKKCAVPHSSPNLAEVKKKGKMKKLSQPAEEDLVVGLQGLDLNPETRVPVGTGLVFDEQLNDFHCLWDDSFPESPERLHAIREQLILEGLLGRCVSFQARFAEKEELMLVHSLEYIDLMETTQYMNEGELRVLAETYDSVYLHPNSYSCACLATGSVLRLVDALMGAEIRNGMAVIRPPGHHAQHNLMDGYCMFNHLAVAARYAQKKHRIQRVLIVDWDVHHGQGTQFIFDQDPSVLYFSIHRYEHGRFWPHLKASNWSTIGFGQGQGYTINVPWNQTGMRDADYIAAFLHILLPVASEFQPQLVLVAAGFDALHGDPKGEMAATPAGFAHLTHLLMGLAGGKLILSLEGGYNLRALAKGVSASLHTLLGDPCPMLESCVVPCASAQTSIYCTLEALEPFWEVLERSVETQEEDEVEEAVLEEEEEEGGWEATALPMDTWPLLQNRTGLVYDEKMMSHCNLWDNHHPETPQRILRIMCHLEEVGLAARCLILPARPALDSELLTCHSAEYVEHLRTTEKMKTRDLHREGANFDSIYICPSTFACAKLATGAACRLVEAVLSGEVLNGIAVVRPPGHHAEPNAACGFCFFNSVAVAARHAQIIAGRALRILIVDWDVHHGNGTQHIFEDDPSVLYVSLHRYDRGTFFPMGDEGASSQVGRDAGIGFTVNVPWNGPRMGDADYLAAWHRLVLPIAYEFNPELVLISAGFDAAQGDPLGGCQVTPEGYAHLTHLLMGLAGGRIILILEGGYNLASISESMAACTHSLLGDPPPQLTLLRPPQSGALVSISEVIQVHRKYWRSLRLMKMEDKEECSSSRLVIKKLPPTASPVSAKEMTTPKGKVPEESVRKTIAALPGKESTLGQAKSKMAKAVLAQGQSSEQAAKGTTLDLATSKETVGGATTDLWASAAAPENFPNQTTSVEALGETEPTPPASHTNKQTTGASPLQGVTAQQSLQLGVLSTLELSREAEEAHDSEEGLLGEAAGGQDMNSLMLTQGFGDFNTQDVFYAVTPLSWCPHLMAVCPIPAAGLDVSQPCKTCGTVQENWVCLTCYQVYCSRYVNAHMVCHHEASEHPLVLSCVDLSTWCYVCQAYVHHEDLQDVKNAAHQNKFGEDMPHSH
Briefly: In vivo inhibition of HDAC6 in BALB/c nude mouse assessed as upregulation of tumor acetylated alpha-tubulin level at 5 mg/kg, ip administered every 2 days for 26 days by Western blotting analysis. In kind it is functional, organism-based. The following applies: time 26.0 day.

The subject of experiment [10] is HCT-116. Briefly: Induction of apoptosis in human HCT-116 cells assessed as early apoptotic cells at 0.4 uM incubated for 24 hrs by Annexin V-FITC/PI staining based flow cytometry analysis ( Rvb = 2.36%). In kind it is functional.
The test system of experiment [11] is HCT-116. As to the kind of experiment: Induction of cell cycle arrest in human HCT-116 cells assessed as accumulation of cells at G2/M phase at 0.1 uM after 24 hrs by PI staining based flow cytometry analysis (reference value: 9.3%). Format: functional.

Regarding `O=C(NCC[Se][Se]CCNC(=O)/C(Cc1ccc(O)c(Br)c1)=N/O)/C(Cc1ccc(O)c(Br)c1)=N/O`, the Activity in experiment [1] was 10.45%; in experiment [2], 46.1%; in experiment [4], 74.56%; in experiment [6], 15%; in experiment [8], 12.9%; in [10], 67%. Moreover, the Activity in experiment [11] is given as 47.92%. Besides, the inhibition result in [3] and in experiment [9] was “Active” in each case. Also, the inhibition in vivo at 5 mg/kg in experiment [5] came out at 74.6%. Also, the viability at 0.2 µM in [7] was found to be 40.7%.

Regarding `O=C(NCC[Se][Se]CCNC(=O)/C(Cc1ccsc1)=N/O)/C(Cc1ccsc1)=N/O`, the Activity in [1] worked out at 36.99%; in experiment [2], 47.1%; in [4], 51.82%; in experiment [6], 11.19%; in [8], 7.96%; in [10], 73.3%. The Activity in experiment [11] turned out to be 31.05%. The inhibition result in experiment [3] and in experiment [9] was “Active” in each case. Also, the inhibition in vivo at 5 mg/kg in [5] stood at 24%. The viability at 0.2 µM in [7] came to 34.5%.
